Source: PubChem BioAssay AID1241 (SRMLSC, 2008)

Experiment: NF-kB promoter reporter activators, neuronal cells, dose response, cell-based, SH-SY5Y, luciferase (AID 1241)
Conditions: fold induction

Row | Compound | EC50 [µM]
1 | CCOC(=O)CSc1nc2cc(OC)ccc2cc1C#N | 0.144
2 | CCOC(=O)C1CCN(Cc2ccc(O)c3ncccc23)CC1 | 2.51
3 | Cc1cc(C)cc(NC(=O)c2ccc([N+](=O)[O-])o2)c1 | 4.24
4 | COc1ccc2c(c1OC)C(=O)OC2Nc1nc(-c2cc3ccccc3oc2=O)cs1 (centres undefined) | 2.1
5 | Cc1ccc(C2=NN(S(C)(=O)=O)C(c3ccc4c(c3)OCO4)C2)cc1 (centres undefined) | 2.65
6 | Cc1ccc(C(=O)Nc2ccc(Cl)cn2)cc1 | 17.3
7 | Cc1ccnc(NC(=O)Nc2cccc(F)c2)c1 | 0.608
8 | Cc1nc(Sc2nnnn2C)c2c3c(sc2n1)CCC3 | 1.59
9 | NC(=O)c1ccsc1NC(=O)c1ccc2c(c1)CCCC2 | 0.455
10 | COc1cccc(N(C(=O)c2nc3nccc(C)n3n2)c2nc3ccccc3s2)c1 | 7.22
11 | Cc1cccc(Nc2nc(-c3cccs3)cs2)n1 | 1.22
12 | Oc1ccc(N=Nc2n[nH]c(-c3ccccc3)n2)cc1 | 3.99
13 | Cn1c(-c2ccco2)nc2cc3ccccc3cc21 | 0.816
14 | O=C1c2ccccc2NC(c2cnc3ccccc3n2)N1O (centres undefined) | 0.903
15 | COc1ccc(-n2ncc3c(NCC(C)C)ncnc32)cc1 | 1.19
16 | Cc1ccc(O)c(NC(=O)c2noc3c2CCCCC3)c1 | 9.29
17 | CCN(CC)S(=O)(=O)c1cc(C(=O)OCC(=O)Nc2ccc(-c3nc4ccc(C)cc4s3)cc2)ccc1F | 0.516
18 | Cc1ccc(NC(=S)N2CCC(c3ccccc3)C2)c(Cl)c1 (centres undefined) | 1.79
19 | Cc1ccc(C(=O)Nc2nnc(SCC(=O)N3CCCc4ccccc43)s2)cc1 | 1.66
20 | O/C(=C\c1ccc2ccccc2n1)c1ccc(O)cc1O | 0.954
21 | Cc1ccc(/C=C/C(=O)NC2=NCCS2)cc1 | 4.32

Row | Compound | EC50 [µM]
22 | CN1/C(=C/C(=O)c2cccs2)Sc2ccccc21 | 0.685
23 | CCc1sc(C(=O)N2CCc3ccccc32)cc1C | 1.69
24 | COc1ccc(/C=C/c2nc3ccccc3n2Cc2ccc(OC)c(OC)c2)cc1 | 0.943
25 | O=C(Nc1ccc(Cl)cc1)N1CCC(c2ccccc2)C1 (centres undefined) | 10.6
26 | COc1cc(/C=N/O)ccc1OCc1ccc([N+](=O)[O-])cc1 | 1.69
27 | Nc1cccn2c(-c3ccc(Cl)c(Cl)c3)cnc12 | 2.68
28 | CCOC(=O)CSc1nc(-c2ccncc2)ccc1C#N | 6.77
29 | Cc1ccccc1-c1noc(-c2ccc(O)cc2)n1 | 6.21
30 | O=C(O)c1cccc(N/N=C/c2cccs2)c1 | 1.31
31 | O=C(Nc1ccc2c(c1)OCCO2)c1ccc2ccccc2n1 | 1.44
32 | Cc1ccc(-c2nc3ccccc3[nH]2)cc1N | 3.41
33 | Cc1ccc(/C=N/Nc2nc3ccccc3s2)o1 | 0.79
34 | O=C(O)c1ccc(N/N=C/c2cn(-c3ccccc3)nc2-c2cccs2)cc1 | 1.7
35 | CC(C(=O)O)c1ccc(N2Cc3ccccc3C2=O)cc1 (centres undefined) | 1.52
36 | O=C(/C=C/c1ccccc1Cl)c1ccccc(=O)c1O | 8.07
37 | O=C(/C=C\Nc1ccc2c(c1)OCO2)c1ccc2c(c1)OCO2 | 0.996
38 | C(=N\NC1=Nc2cccc3cccc1c23)/c1ccccn1 | 7.6
39 | CC(C)N=C1NN=C(c2ccc(Cl)c(Cl)c2)CS1 | 1.43
40 | Cc1cccnc1NCc1ccc(O)c2ncccc12 | 7.65
41 | O=C(N=Nc1c(O)[nH]c2ccccc12)c1cccs1 | 1.48
42 | O=C(Nc1ccc(N2CCCCC2)cc1)c1ccccc1 | 0.978

Row | Compound | EC50 [µM]
43 | c1cnc(SCCOc2ccc3c(c2)CCC3)nc1 | 8.8
44 | Cc1ccc(N/C=C(/C#N)c2ccsc2)cc1C | 6.87
45 | Nc1ccc(-c2nc3ccc(C(=O)O)cc3s2)cc1 | 0.146
46 | COc1ccc(-c2cn3cc(C)ccc3n2)cc1OC | 3.37
47 | Nc1nc(-c2cccnc2)nc2sc3c(c12)CCCC3 | 6.84
48 | Clc1c(CSc2nc3ccccc3o2)nc2ccccn12 | 1.96
49 | O=C(Nc1nc2c(s1)CCCC2)c1ccc(Br)o1 | 1.29
50 | CC(C)c1cc(C(=O)Nc2ccc3c(c2)OCO3)no1 | 3.28
51 | COc1ccc2c(c1)CC/C2=N\OC(=O)c1cccc(C)c1 | 2.06
52 | CCC(C)c1ccc(NC(=O)c2cccs2)cc1 (centres undefined) | 0.734
53 | CCOc1cc(/C=N/Nc2cccc(C(=O)O)c2)ccc1OC(=O)c1ccccc1 | 4
54 | Cn1/c(=N/N=C/c2ccccn2)sc2ccccc21 | 6.33
55 | Cc1ccc(/C=C/C(=O)N2CCc3ccccc32)o1 | 1.33
56 | O=C(Nc1cccnc1Cl)c1ccc2c(Cl)c3c(nc2c1)CCC3 | 0.674
57 | Cc1ccnc(NC(=O)/C=C/c2ccccc2[N+](=O)[O-])c1 | 0.557
58 | CCOC(=O)c1cnc(SCc2ccccc2)nc1N | 8.92
59 | CN(C)c1ccc(/C=c2\sc3n(c2=O)CCCN=3)cc1 | 11.6
60 | Cc1ccc(CN=C2Nc3ccccc3CS2)cc1 | 1.19
61 | O=C(NC1=NCCS1)c1sc2ccccc2c1Cl | 5.76
62 | O=C(NC1=NCCS1)c1csc2ccccc12 | 17.3

The remaining compounds from weak to strong by EC50, led by results:

Row | EC50 [µM] | Compound
63 | 28.7 | Cc1cc(/C=C(\C#N)C(=O)Nc2ccccc2F)c(C)[nH]1
64 | 27 | C=CCNc1oc(/C=C/c2ccccc2)nc1C#N
65 | 26 | Nc1nn(-c2cccc(F)n2)cc1-c1ccccc1
66 | 25.2 | Cn1cccc1C(=O)C(=O)Nc1ccc(Cl)cc1
67 | 23.4 | O=C(Nc1ccc(F)cc1)/C(Cl)=C/c1ccccc1
68 | 23.2 | N/C(=N\OC(=O)c1cccc(Br)c1)c1ccccc1
69 | 22.4 | COc1ccc(-c2cn3cccc(C)c3n2)cc1F
70 | 22.3 | CC(=O)N(/N=C1\Sc2ccccc2C1=O)c1cccc(C)c1
71 | 18.9 | CCOc1ccc(NC(=O)c2ccco2)c([N+](=O)[O-])c1
72 | 18.2 | O=C(N/N=C/C(Br)=C/c1ccccc1)c1cccs1
73 | 13.1 | Cc1ccc(-c2cc(-c3cccs3)[nH]n2)c(O)c1
74 | 11 | CN1CCN(Cc2cc(COCc3ccccc3)c3cccnc3c2O)CC1
75 | 9.96 | Nc1ccc2nc(-c3ccc(Cl)cc3)[nH]c2c1
76 | 8.72 | Nc1ccc(/C=C/C(=O)c2cccs2)cc1
77 | 8.63 | Cn1cccc1/C=C1\CCC/C(=C\c2cccn2C)C1=O
78 | 8.39 | CCC(=O)NC(c1ccccc1OC)c1ccc2cccnc2c1O (centres undefined)
79 | 7.9 | CCc1ccc(C(=O)/C=C/c2cnn(C)c2C)s1
80 | 7.67 | COc1cc(/C=C(/C(=O)c2cccs2)c2nc3ccccc3[nH]2)cc(OC)c1O
81 | 6.77 | CN(c1ccccc1)c1ccc(/C=N/N2CCOCC2)cc1
82 | 6.6 | N#Cc1cccc(NCC(=O)Nc2ccc3c(c2)OCCO3)c1
83 | 6.4 | O=Cc1cn(-c2ccccc2)nc1-c1ccc2c(c1)OCCO2
84 | 6.19 | COc1ccc(C(=O)Nc2cccc(C)c2)cc1
85 | 5.86 | COc1cccc([C@@H]2Oc3ccc(OC)cc3C(=O)[C@H]2O)c1
86 | 5.81 | CC(C)c1ccc(Nc2nc(CC(=O)O)cs2)cc1

Row | EC50 [µM] | Compound
87 | 5.56 | CC(=O)Nc1ccc(-c2cc3ccccc3o2)cc1
88 | 5.24 | Oc1ccc(CN2CCN(Cc3ccccc3)CC2)c2cccnc12
89 | 5.24 | Cn1c(C(=O)Nc2ccc3c(c2)OCO3)cc2sccc21
90 | 5.15 | Cc1ccc(N2Cc3ccccc3C2=S)cc1
91 | 4.94 | Cc1[nH]n(-c2cccc(Cl)c2)c(=O)c1C=NCc1ccco1
92 | 4.69 | Cc1csc(SCc2nnc(-c3ccccc3Br)o2)n1
93 | 4.66 | CC(/C=N/NC(=O)c1ccco1)=C\c1ccccc1
94 | 4.57 | O=C(Nc1nc2ccc(F)cc2s1)c1cccs1
95 | 4.15 | O=C(CSc1ncnc2ccccc12)c1ccco1
96 | 4.12 | O=C1/C(=C/c2cccs2)CCc2ccccc21
97 | 3.99 | COc1ccc2nc(NC(=O)c3ccoc3C)sc2c1
98 | 3.92 | COc1ccc(-c2cc(=O)c3cc(OC)ccc3o2)cc1
99 | 3.87 | Brc1ccc(-c2ncc(-c3ccccc3)cn2)cc1
100 | 3.86 | Fc1c(F)c(F)c(N/N=C/c2c[nH]c3ccccc23)c(F)c1F
101 | 3.63 | O=[N+]([O-])c1ccc(N/N=C/c2ccc[nH]2)cc1
102 | 3.37 | Cc1c(C(=O)N2CCc3ccccc32)oc2ccccc12
103 | 2.66 | CNc1nc(-c2ccc3c(c2)CCN3C(=O)c2ccccc2F)cs1
104 | 2.56 | COc1ccc(-c2nc(-c3ccc(Br)cc3)no2)c(OC)c1
105 | 2.49 | CSc1ccc(/C=C/c2ccc3cccc(O)c3n2)cc1
106 | 2.46 | CN(C)c1ccc(NC(=O)CCCc2ccccc2)cc1
107 | 2.43 | O=C(Nc1ccc(Cl)cn1)c1cc2ccccc2o1
108 | 2.3 | Cc1ccc(-c2cn3cccc(C)c3n2)cc1
109 | 2.14 | COc1ccc(/C=N/Nc2nc3ccccc3o2)cc1O
110 | 1.85 | Cc1ccc(N/N=C(\C#N)C(=N)N2CCCCCC2)cc1

Row | EC50 [µM] | Compound
111 | 1.73 | Cc1ccc(N=Cc2sc(O)c3ccccc23)cc1
112 | 1.72 | N#C/C(=N\Nc1ccc(Cl)cc1)C(=N)N1CCCCC1
113 | 1.71 | COC(=O)c1ccc(NC(=O)C(=O)c2cccn2C)cc1
114 | 1.65 | Nc1ccc(-c2nc3ccc([N+](=O)[O-])cc3[nH]2)cc1
115 | 1.5 | O=C(CCCc1ccccc1)Nc1ccc2c(c1)OCCO2
116 | 1.42 | COc1cc(/C=N/Nc2nc3ccccc3s2)ccc1OC(=O)c1ccccc1F
117 | 1.35 | O=C(O)c1cccc(COc2ccccc2Cl)c1
118 | 1.29 | COc1cccc(C(=O)/C=C/Nc2cccc(O)c2)c1
119 | 1.28 | O=C(/C=C/c1ccco1)Nc1ccc2c(c1)OCCO2
120 | 1.15 | O=C(/C=C\Nc1ccc(Br)cc1)c1cccnc1
121 | 1.14 | CC(C)(C)c1ccc(C(=O)/C=C2\NC(=O)CS2)cc1
122 | 1.14 | COc1ccc2cc(-c3cc(C(=O)O)c4ccccc4n3)ccc2c1
123 | 1.13 | O=C(Nc1ccc2c(c1)OCO2)c1noc2c1CCCCC2
124 | 1.11 | Cc1ccc(C(=O)Nc2ccc3nccnc3c2)cc1
125 | 1.01 | Nc1nn(-c2ccccc2)c(N)c1N=Nc1ccccc1F
126 | 0.784 | Cc1nc2c(ccc3nc(NC(=O)c4ccc5c(c4)OCCO5)sc32)s1
127 | 0.763 | Cc1ccc(NC(=O)N2CCc3ccccc32)cc1
128 | 0.702 | CC(=O)Nc1cccc(-c2csc(Nc3ccc(C)cn3)n2)c1
129 | 0.598 | C=CCNc1nc(-c2cc3ccccc3o2)cs1
130 | 0.511 | Cc1ccc(C(=O)/C=C/Nc2ccccc2C(N)=O)cc1
131 | 0.498 | COc1cccc(-c2cc(C(=O)Nc3cccc(O)c3)no2)c1
132 | 0.347 | O=C(/C=C\Nc1cccc(F)c1)c1cccs1
133 | 0.198 | O=C(NCCC1=CCCCC1)c1ccc(Cl)cc1
134 | 0.158 | Cc1ccc(C(=O)Nc2ccc3c(c2)CCC3)cc1
